Target: T1, Msh2–Msh6 (Saccharomyces cerevisiae, UniProt P25847+Q03834, P25847:K694R)
T1 sequence (P25847 1-964 K694R): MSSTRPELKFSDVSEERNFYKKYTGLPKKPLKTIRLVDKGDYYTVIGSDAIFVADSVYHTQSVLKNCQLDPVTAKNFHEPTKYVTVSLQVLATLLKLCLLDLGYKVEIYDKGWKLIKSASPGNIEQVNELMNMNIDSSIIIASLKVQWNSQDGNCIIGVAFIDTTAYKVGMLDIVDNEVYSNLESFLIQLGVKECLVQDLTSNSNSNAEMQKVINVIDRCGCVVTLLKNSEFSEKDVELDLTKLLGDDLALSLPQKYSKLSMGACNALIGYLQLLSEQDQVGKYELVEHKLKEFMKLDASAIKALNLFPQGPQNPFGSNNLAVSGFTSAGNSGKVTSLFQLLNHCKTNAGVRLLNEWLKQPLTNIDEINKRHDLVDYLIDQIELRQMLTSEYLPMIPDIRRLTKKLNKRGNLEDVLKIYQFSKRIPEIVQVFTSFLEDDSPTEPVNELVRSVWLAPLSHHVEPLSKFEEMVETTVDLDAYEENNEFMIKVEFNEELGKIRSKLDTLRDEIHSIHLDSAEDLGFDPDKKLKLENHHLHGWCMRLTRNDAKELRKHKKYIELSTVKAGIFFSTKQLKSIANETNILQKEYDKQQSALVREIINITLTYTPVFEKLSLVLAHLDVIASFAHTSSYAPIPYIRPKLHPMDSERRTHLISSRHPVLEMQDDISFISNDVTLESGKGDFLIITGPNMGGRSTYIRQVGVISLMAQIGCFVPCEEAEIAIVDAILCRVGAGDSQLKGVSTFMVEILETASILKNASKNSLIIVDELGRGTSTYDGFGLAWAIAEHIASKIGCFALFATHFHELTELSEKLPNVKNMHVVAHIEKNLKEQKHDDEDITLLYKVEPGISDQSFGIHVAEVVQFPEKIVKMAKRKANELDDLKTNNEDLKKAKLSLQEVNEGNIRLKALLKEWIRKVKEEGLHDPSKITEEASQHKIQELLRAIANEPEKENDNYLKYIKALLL
T1 sequence (Q03834 1-1242): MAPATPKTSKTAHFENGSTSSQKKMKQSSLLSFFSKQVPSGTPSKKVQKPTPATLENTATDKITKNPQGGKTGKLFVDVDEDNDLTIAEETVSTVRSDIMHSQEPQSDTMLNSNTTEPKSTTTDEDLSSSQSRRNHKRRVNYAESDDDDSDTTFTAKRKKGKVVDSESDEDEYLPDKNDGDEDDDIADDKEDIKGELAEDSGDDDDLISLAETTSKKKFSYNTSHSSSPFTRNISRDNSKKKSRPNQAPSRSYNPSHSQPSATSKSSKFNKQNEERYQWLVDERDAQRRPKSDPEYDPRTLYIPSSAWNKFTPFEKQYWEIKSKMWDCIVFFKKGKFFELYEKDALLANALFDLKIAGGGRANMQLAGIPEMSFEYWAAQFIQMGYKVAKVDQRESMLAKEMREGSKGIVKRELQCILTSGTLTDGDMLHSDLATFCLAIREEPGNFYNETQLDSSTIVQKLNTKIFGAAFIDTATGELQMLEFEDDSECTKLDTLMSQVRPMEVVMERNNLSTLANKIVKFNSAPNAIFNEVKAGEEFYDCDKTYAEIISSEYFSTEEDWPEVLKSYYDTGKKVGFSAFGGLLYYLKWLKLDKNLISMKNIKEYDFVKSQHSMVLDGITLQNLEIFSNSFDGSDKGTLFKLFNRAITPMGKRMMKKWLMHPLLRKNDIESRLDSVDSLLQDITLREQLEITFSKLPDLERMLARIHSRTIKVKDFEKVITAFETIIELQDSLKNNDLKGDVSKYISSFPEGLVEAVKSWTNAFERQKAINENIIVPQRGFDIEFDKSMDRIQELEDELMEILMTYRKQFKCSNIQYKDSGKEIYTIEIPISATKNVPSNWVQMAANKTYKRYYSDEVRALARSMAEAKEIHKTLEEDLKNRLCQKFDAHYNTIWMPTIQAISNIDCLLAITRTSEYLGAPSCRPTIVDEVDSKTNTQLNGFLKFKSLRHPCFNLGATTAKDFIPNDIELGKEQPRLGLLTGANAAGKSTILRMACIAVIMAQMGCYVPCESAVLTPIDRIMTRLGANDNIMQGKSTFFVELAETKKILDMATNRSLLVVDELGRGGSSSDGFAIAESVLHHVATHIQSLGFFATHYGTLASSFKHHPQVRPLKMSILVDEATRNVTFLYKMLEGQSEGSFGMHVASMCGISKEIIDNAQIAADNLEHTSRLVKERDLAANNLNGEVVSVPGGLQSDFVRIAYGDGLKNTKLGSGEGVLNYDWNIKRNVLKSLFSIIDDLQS
Experiment: UV cross-linking of [γ-32P]ATP, SDS-PAGE, phosphorimaging
Assay type: binding
Conditions: labelled compound; no Mg2+, EDTA, pH 8, on ice; Msh2 site at 60 μM ATP, Msh6 site at 1 μM ATP

## Nc1ncnc2c1ncn2[C@@H]1O[C@H](COP(=O)(O)OP(=O)(O)OP(=O)(O)O)[C@@H](O)[C@H]1O [ATP]
  relative ATP binding: Msh2(K694A)–Msh6 and Msh2(K694R)–Msh6 mutant complexes were defective for ATP binding to both
